The subject of the assay is human platelet rich plasma. The format is cell-based. As to the method:
Platelet aggregation assay--Aggregation studies using human platelet rich plasma were performed as previously described (20). Briefly, blood from human volunteers who had not taken any antiplatelet drugs in the previous two weeks was collected into 1/10th volume of CCD buffer (100 mM sodium citrate, 136 mM glucose, pH 6.5). The blood was centrifuged for 3 min at 1000×g and the platelet rich plasma (PRP) was transferred to a plastic tube with a plastic pipet. The PRP was adjusted to 2×10^8 platelets/ml with platelet poor plasma (prepared by centrifuging anti-coagulated blood at 2000×g for 15 min) and placed on ice. PRP and control (saline) or test peptides (500 μl) were incubated with 5 μM ADP at 37° C. in a silanized glass cuvette with stirring (900 RPM). The extent of aggregation was monitored with a Payton aggregometer 2 min after the addition of ADP. Inhibition of aggregation for each sample was determined using the following formula: % Inhibition=[…], where Tbase =% of light transmission in PRP, Tagg =% of light transmission in the aggregated PRP sample containing the saline control for peptides, and Tpep =% of light transmission in the aggregated PRP sample containing the peptide inhibitor.

No end group written: not given here.

With HHLGGAKGAGDV, the “Platelet ID50 (inhibition of platelet aggregation)” value was over 100 µM.

These data come from US5225531A, “Hexapeptide Lys Gly Ala Gly Asp Val” (Washington University, priority 1992, dated 1993).
